Results published in publication PMC12670405, “Second-Generation AURKA-Targeting PROTACs: Structural Optimization toward in Vivo Degradation in Neuroblastoma” (Journal of Medicinal Chemistry, 2025).

Assays:
Assay in all cases: KINOMEscan scanMAX
Format in all cases: binding
CAMKK2 = biological target: T1, CAMKK2 (Homo sapiens, UniProt Q96RR4); conditions: read-out: Percent Control
T1 construct: purchased Eurofins Discovery (DiscoverX KINOMEscan scanMAX)
Method: (§1) The kinome-wide binding assay was performed by Eurofins Discovery using the scanMAX screening platform. More information can be found on the Eurofins Discovery Web site.

CAMK2A = biological target: T2, CAMK2A (Homo sapiens, UniProt Q9UQM7); conditions: read-out: Percent Control
T2 construct: purchased Eurofins Discovery (DiscoverX KINOMEscan scanMAX)
Method: as §1

BMX = biological target: T3, BMX (Homo sapiens, UniProt P51813); conditions: read-out: Percent Control
T3 construct: purchased Eurofins Discovery (DiscoverX KINOMEscan scanMAX)
T3 sequence (P51813 whole entry): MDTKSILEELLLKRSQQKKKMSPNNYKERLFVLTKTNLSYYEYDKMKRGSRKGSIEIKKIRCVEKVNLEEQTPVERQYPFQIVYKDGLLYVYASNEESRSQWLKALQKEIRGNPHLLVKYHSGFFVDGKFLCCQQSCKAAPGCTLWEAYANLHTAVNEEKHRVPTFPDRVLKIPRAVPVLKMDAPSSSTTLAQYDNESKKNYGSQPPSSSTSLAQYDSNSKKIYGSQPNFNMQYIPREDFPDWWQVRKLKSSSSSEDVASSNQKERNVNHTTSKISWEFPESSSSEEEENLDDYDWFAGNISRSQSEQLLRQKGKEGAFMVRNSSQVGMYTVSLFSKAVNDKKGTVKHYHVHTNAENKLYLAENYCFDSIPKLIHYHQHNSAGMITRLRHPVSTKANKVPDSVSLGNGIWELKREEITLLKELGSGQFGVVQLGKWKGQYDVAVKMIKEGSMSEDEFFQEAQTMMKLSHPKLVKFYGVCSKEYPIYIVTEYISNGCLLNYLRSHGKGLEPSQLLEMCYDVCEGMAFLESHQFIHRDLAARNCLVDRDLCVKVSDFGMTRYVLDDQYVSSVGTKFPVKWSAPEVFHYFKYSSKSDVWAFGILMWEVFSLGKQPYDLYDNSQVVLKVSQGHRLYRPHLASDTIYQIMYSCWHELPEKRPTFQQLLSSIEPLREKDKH
Method: as §1

MLCK = biological target: T4, MLCK (Homo sapiens, UniProt Q32MK0); conditions: read-out: Percent Control
T4 construct: purchased Eurofins Discovery (DiscoverX KINOMEscan scanMAX)
Method: as §1

MYLK2 = biological target: T5, MYLK2 (Homo sapiens, UniProt Q9H1R3); conditions: read-out: Percent Control
T5 construct: purchased Eurofins Discovery (DiscoverX KINOMEscan scanMAX)
Method: as §1

PFCDPK1(P.falciparum) = biological target: T6, PFCDPK1(P.falciparum) (Plasmodium falciparum, UniProt P62344); conditions: read-out: Percent Control
T6 construct: purchased Eurofins Discovery (DiscoverX KINOMEscan scanMAX)
Method: as §1

CLK4 = biological target: T7, CLK4 (Homo sapiens, UniProt Q9HAZ1); conditions: read-out: Percent Control
T7 construct: purchased Eurofins Discovery (DiscoverX KINOMEscan scanMAX)
Method: as §1

CLK3 = biological target: T8, CLK3 (Homo sapiens, UniProt P49761); conditions: read-out: Percent Control
T8 construct: purchased Eurofins Discovery (DiscoverX KINOMEscan scanMAX)
T8 sequence (P49761 whole entry): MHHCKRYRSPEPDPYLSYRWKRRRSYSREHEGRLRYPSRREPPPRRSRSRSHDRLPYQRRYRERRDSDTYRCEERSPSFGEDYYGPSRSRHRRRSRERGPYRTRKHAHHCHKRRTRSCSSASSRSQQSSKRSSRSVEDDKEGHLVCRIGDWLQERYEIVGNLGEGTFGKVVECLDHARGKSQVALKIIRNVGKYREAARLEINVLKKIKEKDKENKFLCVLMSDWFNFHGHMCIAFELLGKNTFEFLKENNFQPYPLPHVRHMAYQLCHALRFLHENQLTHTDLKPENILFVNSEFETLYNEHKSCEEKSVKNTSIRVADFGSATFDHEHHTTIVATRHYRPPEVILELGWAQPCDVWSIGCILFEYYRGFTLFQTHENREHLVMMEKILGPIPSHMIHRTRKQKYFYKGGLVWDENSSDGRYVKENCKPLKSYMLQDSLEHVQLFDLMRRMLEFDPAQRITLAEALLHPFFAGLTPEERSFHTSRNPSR
Method: as §1

ABL1 = biological target: T9, ABL1 (Homo sapiens, UniProt P00519); conditions: 1000 nM; read-out: Percent Control
T9 construct: purchased Eurofins Discovery
Method: as §1

FYN = biological target: T10, FYN (Homo sapiens, UniProt P06241); conditions: read-out: Percent Control
T10 construct: purchased Eurofins Discovery (DiscoverX KINOMEscan scanMAX)
Method: as §1

TAOK1 = biological target: T11, TAOK1 (Homo sapiens, UniProt Q7L7X3); conditions: read-out: Percent Control
T11 construct: purchased Eurofins Discovery (DiscoverX KINOMEscan scanMAX)
Method: as §1

[1] = biological target: T12, ABL1(H396P)-phosphorylated (Homo sapiens, UniProt P00519, H396P); conditions: read-out: Percent Control
T12 construct: purchased Eurofins Discovery (DiscoverX KINOMEscan scanMAX)
Method: as §1

NEK6 = biological target: T13, NEK6 (Homo sapiens, UniProt Q9HC98); conditions: read-out: Percent Control
T13 construct: purchased Eurofins Discovery (DiscoverX KINOMEscan scanMAX)
Method: as §1

MST4 = biological target: T14, MST4 (Homo sapiens, UniProt Q9P289); conditions: read-out: Percent Control
T14 construct: purchased Eurofins Discovery (DiscoverX KINOMEscan scanMAX)
Method: as §1

MARK1 = biological target: T15, MARK1 (Homo sapiens, UniProt Q9P0L2); conditions: read-out: Percent Control
T15 construct: purchased Eurofins Discovery (DiscoverX KINOMEscan scanMAX)
Method: as §1

RIPK5 = biological target: T16, RIPK5 (Homo sapiens, UniProt Q6XUX3); conditions: read-out: Percent Control
T16 construct: purchased Eurofins Discovery (DiscoverX KINOMEscan scanMAX)
T16 sequence (Q6XUX3 whole entry): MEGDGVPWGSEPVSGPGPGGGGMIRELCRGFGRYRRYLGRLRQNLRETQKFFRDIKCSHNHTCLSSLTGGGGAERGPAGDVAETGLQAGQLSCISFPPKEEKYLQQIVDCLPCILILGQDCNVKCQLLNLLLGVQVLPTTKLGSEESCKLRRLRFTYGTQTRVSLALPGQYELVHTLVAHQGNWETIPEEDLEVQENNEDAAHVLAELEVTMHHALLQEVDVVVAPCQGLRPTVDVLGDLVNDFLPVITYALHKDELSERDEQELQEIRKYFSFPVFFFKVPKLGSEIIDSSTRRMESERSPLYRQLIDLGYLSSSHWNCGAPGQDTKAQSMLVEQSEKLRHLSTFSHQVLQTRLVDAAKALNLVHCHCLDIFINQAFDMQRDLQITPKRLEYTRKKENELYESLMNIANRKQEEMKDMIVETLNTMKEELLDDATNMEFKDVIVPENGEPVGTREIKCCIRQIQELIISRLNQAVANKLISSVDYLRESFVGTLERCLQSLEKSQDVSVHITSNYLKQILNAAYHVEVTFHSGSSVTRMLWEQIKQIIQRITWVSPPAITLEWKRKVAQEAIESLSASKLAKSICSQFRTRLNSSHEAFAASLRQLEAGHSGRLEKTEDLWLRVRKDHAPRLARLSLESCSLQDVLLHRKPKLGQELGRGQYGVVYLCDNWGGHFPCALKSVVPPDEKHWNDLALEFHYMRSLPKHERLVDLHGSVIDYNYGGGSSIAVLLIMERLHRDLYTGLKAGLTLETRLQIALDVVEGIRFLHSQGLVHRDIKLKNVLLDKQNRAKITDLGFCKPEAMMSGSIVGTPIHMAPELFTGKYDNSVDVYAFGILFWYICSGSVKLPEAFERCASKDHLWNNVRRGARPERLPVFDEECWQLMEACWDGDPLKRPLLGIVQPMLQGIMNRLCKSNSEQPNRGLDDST
Method: as §1

JNK1 = biological target: T17, JNK1 (Homo sapiens, UniProt P45983); conditions: read-out: Percent Control
T17 construct: purchased Eurofins Discovery (DiscoverX KINOMEscan scanMAX)
Method: as §1

PKAC-alpha = biological target: T18, PKAC-alpha (Homo sapiens, UniProt P17612); conditions: read-out: Percent Control
T18 construct: purchased Eurofins Discovery (DiscoverX KINOMEscan scanMAX)
Method: as §1

IGF1R = biological target: T19, IGF1R (Homo sapiens, UniProt P08069); conditions: read-out: Percent Control
T19 construct: purchased Eurofins Discovery (DiscoverX KINOMEscan scanMAX)
Method: as §1

[2] = biological target: T20, RSK4(Kin.Dom.1-N-terminal) (Homo sapiens, UniProt Q9UK32); conditions: read-out: Percent Control
T20 construct: RSK4(Kin.Dom.1-N-terminal); purchased Eurofins Discovery (DiscoverX KINOMEscan scanMAX)
Method: as §1

STK39 = biological target: T21, STK39 (Homo sapiens, UniProt Q9UEW8); conditions: read-out: Percent Control
T21 construct: purchased Eurofins Discovery (DiscoverX KINOMEscan scanMAX)
Method: as §1

AURKB = biological target: T22, AURKB (Homo sapiens, UniProt Q96GD4); conditions: read-out: Percent Control
T22 construct: purchased Eurofins Discovery
Method: as §1

QSK = biological target: T23, QSK (Homo sapiens, UniProt Q9Y2K2); conditions: read-out: Percent Control
T23 construct: purchased Eurofins Discovery (DiscoverX KINOMEscan scanMAX)
T23 sequence (Q9Y2K2 whole entry): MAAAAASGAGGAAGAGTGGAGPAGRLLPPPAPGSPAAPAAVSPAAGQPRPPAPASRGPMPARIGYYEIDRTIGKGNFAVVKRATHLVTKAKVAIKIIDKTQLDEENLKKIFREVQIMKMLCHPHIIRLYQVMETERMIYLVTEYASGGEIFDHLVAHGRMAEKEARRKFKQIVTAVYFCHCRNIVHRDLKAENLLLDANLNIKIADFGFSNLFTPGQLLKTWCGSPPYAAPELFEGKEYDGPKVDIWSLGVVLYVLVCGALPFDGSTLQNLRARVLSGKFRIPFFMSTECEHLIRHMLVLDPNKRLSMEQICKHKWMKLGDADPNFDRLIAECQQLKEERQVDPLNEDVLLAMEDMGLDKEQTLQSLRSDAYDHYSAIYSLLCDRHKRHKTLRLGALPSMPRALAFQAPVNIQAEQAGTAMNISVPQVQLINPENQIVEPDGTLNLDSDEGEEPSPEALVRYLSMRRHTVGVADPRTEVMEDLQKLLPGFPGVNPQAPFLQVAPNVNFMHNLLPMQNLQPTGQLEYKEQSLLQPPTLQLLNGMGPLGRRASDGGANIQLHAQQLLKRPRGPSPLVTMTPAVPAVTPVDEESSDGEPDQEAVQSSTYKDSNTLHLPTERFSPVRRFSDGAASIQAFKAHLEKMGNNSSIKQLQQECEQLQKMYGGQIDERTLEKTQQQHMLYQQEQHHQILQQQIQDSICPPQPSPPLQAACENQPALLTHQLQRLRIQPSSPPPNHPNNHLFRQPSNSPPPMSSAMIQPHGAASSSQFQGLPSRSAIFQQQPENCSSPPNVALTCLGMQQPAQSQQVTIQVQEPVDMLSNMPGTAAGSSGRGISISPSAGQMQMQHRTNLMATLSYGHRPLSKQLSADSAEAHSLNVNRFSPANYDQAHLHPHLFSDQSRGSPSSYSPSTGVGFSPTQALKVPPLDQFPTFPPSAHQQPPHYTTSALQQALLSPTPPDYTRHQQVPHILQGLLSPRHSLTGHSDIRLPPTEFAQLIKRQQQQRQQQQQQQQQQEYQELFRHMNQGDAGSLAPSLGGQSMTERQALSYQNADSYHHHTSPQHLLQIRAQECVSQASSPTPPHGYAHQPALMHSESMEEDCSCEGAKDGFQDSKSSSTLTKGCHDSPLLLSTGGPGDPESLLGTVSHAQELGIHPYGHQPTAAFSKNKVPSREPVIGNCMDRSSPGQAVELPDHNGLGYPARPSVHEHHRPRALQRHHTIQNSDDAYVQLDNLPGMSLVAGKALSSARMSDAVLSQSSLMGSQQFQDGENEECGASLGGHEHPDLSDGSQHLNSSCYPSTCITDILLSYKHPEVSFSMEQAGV
Method: as §1

p38-gamma = biological target: T24, p38-gamma (Homo sapiens, UniProt P53778); conditions: read-out: Percent Control
T24 construct: purchased Eurofins Discovery (DiscoverX KINOMEscan scanMAX)
Method: as §1

PAK6 = biological target: T25, PAK6 (Homo sapiens, UniProt Q9NQU5); conditions: read-out: Percent Control
T25 construct: purchased Eurofins Discovery (DiscoverX KINOMEscan scanMAX)
T25 sequence (Q9NQU5 whole entry): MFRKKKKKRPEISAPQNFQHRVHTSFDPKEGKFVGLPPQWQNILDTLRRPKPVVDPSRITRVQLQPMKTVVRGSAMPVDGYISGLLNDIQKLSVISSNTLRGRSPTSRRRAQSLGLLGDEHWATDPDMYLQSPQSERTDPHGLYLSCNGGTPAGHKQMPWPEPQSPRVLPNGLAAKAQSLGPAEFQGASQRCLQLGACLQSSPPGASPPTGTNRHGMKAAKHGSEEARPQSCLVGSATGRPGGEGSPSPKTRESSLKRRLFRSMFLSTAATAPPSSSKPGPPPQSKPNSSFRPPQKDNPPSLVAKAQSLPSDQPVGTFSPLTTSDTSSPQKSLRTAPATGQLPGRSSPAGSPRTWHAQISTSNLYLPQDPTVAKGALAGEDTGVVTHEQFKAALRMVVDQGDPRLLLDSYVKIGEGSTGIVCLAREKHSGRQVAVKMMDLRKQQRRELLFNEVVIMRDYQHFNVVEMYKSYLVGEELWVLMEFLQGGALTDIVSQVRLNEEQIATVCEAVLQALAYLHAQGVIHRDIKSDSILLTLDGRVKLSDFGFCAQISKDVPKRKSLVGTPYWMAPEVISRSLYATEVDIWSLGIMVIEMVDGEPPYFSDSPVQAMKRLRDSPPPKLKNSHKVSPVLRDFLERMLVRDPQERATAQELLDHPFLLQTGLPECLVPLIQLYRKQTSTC
Method: as §1

ERBB4 = biological target: T26, ERBB4 (Homo sapiens, UniProt Q15303); conditions: read-out: Percent Control
T26 construct: purchased Eurofins Discovery (DiscoverX KINOMEscan scanMAX)
Method: as §1

PIK3CA(Q546K) = biological target: T27, PIK3CA(Q546K) (Homo sapiens, UniProt P42336, Q546K); conditions: read-out: Percent Control
T27 construct: purchased Eurofins Discovery (DiscoverX KINOMEscan scanMAX)
Method: as §1

SGK3 = biological target: T28, SGK3 (Homo sapiens, UniProt Q96BR1); conditions: read-out: Percent Control
T28 construct: purchased Eurofins Discovery (DiscoverX KINOMEscan scanMAX)
Method: as §1

CSNK1G2 = biological target: T29, CSNK1G2 (Homo sapiens, UniProt P78368); conditions: read-out: Percent Control
T29 construct: purchased Eurofins Discovery (DiscoverX KINOMEscan scanMAX)
T29 sequence (P78368 whole entry): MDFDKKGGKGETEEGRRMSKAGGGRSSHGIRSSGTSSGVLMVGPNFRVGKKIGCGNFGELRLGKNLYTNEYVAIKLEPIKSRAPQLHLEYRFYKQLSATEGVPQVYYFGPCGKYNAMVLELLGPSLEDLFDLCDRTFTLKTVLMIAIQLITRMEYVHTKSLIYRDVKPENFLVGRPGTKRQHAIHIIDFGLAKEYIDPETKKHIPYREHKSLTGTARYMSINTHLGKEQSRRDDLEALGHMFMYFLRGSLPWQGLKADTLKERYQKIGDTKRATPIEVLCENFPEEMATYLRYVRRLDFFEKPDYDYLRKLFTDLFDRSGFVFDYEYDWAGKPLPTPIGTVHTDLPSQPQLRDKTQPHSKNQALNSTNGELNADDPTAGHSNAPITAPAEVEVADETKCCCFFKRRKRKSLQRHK
Method: as §1

MERTK = biological target: T30, MERTK (Homo sapiens, UniProt Q12866); conditions: read-out: Percent Control
T30 construct: purchased Eurofins Discovery (DiscoverX KINOMEscan scanMAX)
Method: as §1

GRK7 = biological target: T31, GRK7 (Homo sapiens, UniProt Q8WTQ7); conditions: read-out: Percent Control
T31 construct: purchased Eurofins Discovery (DiscoverX KINOMEscan scanMAX)
T31 sequence (Q8WTQ7 whole entry): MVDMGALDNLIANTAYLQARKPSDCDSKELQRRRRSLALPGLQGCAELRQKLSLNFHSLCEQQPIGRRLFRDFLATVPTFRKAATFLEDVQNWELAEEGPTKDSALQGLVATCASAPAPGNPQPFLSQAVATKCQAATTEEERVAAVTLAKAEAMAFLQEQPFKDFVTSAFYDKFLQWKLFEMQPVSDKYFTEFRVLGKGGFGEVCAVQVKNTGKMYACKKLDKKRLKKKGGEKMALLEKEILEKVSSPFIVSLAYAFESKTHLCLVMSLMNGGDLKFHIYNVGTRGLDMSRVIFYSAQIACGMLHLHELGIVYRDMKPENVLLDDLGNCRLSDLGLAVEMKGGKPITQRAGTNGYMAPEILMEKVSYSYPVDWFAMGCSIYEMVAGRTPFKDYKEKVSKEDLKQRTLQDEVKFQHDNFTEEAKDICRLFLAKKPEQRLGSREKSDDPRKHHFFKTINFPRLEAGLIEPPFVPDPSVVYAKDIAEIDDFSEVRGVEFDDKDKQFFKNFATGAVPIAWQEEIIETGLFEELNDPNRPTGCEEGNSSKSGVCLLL
Method: as §1

EPHA8 = biological target: T32, EPHA8 (Homo sapiens, UniProt P29322); conditions: read-out: Percent Control
T32 construct: purchased Eurofins Discovery (DiscoverX KINOMEscan scanMAX)
Method: as §1

IKK-beta = biological target: T33, IKK-beta (Homo sapiens, UniProt O14920); conditions: read-out: Percent Control
T33 construct: purchased Eurofins Discovery (DiscoverX KINOMEscan scanMAX)
Method: as §1

RIPK4 = biological target: T34, RIPK4 (Homo sapiens, UniProt P57078); conditions: read-out: Percent Control
T34 construct: purchased Eurofins Discovery (DiscoverX KINOMEscan scanMAX)
Method: as §1

Work on `Cc1cc(Nc2ccc(F)c(CC3(C(=O)N4CCC(F)(CN5CCN(c6ccc(N7CCC(=O)NC7=O)cn6)CC5)CC4)CCN(Cc4cccc(Cl)c4F)CC3)n2)n[nH]1` [SK5527] yielded a remaining binding at 0.1 µM (CAMKK2; 100 nM) of 100%, a remaining binding at 1 µM (CAMKK2; 1000 nM) of 100% and a remaining binding at 0.1 µM (CAMK2A; 100 nM) of 98%. For the same compound, the remaining binding at 1 µM (CAMK2A; 1000 nM) was 100%, the remaining binding at 0.1 µM (BMX; 100 nM) was 100% and the remaining binding at 1 µM (BMX; 1000 nM) was 73%. The remaining binding at 0.1 µM (MLCK; 100 nM) was 100%, the remaining binding at 1 µM (MLCK; 1000 nM) was 0% and the remaining binding at 0.1 µM (MYLK2; 100 nM) was 100%. The remaining binding at 1 µM (MYLK2; 1000 nM) was 100%, the remaining binding at 0.1 µM (PFCDPK1(P.falciparum); 100 nM) was 87% and the remaining binding at 1 µM (PFCDPK1(P.falciparum); 1000 nM) was 81%. It also gave a remaining binding at 0.1 µM (CLK4; 100 nM) of 85%, a remaining binding at 1 µM (CLK4; 1000 nM) of 100% and a remaining binding at 0.1 µM (CLK3; 100 nM) of 100%. It also gave a remaining binding at 1 µM (CLK3; 1000 nM) of 100%, a remaining binding at 1 µM (ABL1) of 8.4% and a remaining binding at 0.1 µM (FYN; 100 nM) of 94%. It also gave a remaining binding at 1 µM (FYN; 1000 nM) of 71%, a remaining binding at 0.1 µM (TAOK1; 100 nM) of 79% and a remaining binding at 1 µM (TAOK1; 1000 nM) of 88%. For the same compound, the remaining binding at 0.1 µM ([1]; 100 nM) was 88%, the remaining binding at 1 µM ([1]; 1000 nM) was 70% and the remaining binding at 0.1 µM (NEK6; 100 nM) was 96%. For the same compound, the remaining binding at 1 µM (NEK6; 1000 nM) was 54%, the remaining binding at 0.1 µM (MST4; 100 nM) was 95% and the remaining binding at 1 µM (MST4; 1000 nM) was 86%. For the same compound, the remaining binding at 0.1 µM (MARK1; 100 nM) was 100%, the remaining binding at 1 µM (MARK1; 1000 nM) was 100% and the remaining binding at 0.1 µM (RIPK5; 100 nM) was 97%. For the same compound, the remaining binding at 1 µM (RIPK5; 1000 nM) was 81%, the remaining binding at 0.1 µM (JNK1; 100 nM) was 72% and the remaining binding at 1 µM (JNK1; 1000 nM) was 95%. The remaining binding at 0.1 µM (PKAC-alpha; 100 nM) was 83%, the remaining binding at 1 µM (PKAC-alpha; 1000 nM) was 86% and the remaining binding at 0.1 µM (IGF1R; 100 nM) was 87%. It also gave a remaining binding at 1 µM (IGF1R; 1000 nM) of 89%, a remaining binding at 0.1 µM ([2]; 100 nM) of 93% and a remaining binding at 1 µM ([2]; 1000 nM) of 79%. For the same compound, the remaining binding at 0.1 µM (STK39; 100 nM) was 100%, the remaining binding at 1 µM (STK39; 1000 nM) was 85% and the remaining binding at 0.1 µM (AURKB; 100 nM) was 100%. For the same compound, the remaining binding at 1 µM (AURKB; 1000 nM) was 53%, the remaining binding at 0.1 µM (QSK; 100 nM) was 89% and the remaining binding at 1 µM (QSK; 1000 nM) was 90%. The remaining binding at 0.1 µM (p38-gamma; 100 nM) was 97%, the remaining binding at 1 µM (p38-gamma; 1000 nM) was 87% and the remaining binding at 0.1 µM (PAK6; 100 nM) was 100%. It also gave a remaining binding at 1 µM (PAK6; 1000 nM) of 100%, a remaining binding at 0.1 µM (ERBB4; 100 nM) of 100% and a remaining binding at 1 µM (ERBB4; 1000 nM) of 100%. It also gave a remaining binding at 0.1 µM (PIK3CA(Q546K); 100 nM) of 81%, a remaining binding at 1 µM (PIK3CA(Q546K); 1000 nM) of 78% and a remaining binding at 0.1 µM (SGK3; 100 nM) of 100%. It also gave a remaining binding at 1 µM (SGK3; 1000 nM) of 88%, a remaining binding at 0.1 µM (CSNK1G2; 100 nM) of 98% and a remaining binding at 1 µM (CSNK1G2; 1000 nM) of 93%. It also gave a remaining binding at 0.1 µM (MERTK; 100 nM) of 90%, a remaining binding at 1 µM (MERTK; 1000 nM) of 54% and a remaining binding at 0.1 µM (GRK7; 100 nM) of 100%. It also gave a remaining binding at 1 µM (GRK7; 1000 nM) of 56%, a remaining binding at 0.1 µM (EPHA8; 100 nM) of 91% and a remaining binding at 1 µM (EPHA8; 1000 nM) of 81%. For the same compound, the remaining binding at 0.1 µM (IKK-beta; 100 nM) was 100%, the remaining binding at 1 µM (IKK-beta; 1000 nM) was 73% and the remaining binding at 0.1 µM (RIPK4; 100 nM) was 67%. It also gave a remaining binding at 1 µM (RIPK4; 1000 nM) of 46%.
